Measurements as given in ChEMBL document CHEMBL5291721, “A preclinical secondary pharmacology resource illuminates target-adverse drug reaction associations of marketed drugs” (Nat Commun, 2023).

Assays:
[1] = molecular target: Cannabinoid receptor 1 (Homo sapiens, UniProt P21554); type: functional
[2] = molecular target: T1, Muscarinic acetylcholine receptor M5 (Homo sapiens, UniProt P08912)
T1 sequence (P08912 whole entry): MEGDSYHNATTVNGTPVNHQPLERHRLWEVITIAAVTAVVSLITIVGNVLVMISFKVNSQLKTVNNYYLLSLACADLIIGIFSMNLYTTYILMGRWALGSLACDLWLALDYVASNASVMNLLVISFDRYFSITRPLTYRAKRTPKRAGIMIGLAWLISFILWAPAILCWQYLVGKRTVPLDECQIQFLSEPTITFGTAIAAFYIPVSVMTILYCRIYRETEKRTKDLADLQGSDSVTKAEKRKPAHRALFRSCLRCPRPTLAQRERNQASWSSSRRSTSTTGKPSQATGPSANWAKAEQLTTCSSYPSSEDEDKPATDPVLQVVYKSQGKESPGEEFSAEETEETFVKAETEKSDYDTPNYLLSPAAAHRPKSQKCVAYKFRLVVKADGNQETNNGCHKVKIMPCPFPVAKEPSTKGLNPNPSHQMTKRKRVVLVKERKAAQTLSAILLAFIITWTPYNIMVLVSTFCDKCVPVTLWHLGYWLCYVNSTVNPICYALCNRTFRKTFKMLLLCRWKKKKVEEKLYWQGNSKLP

[3] = molecular target: D(1B) dopamine receptor (Homo sapiens, UniProt P21918)
[4] = molecular target: T2, Substance-K receptor (Homo sapiens, UniProt P21452)
T2 sequence (P21452 whole entry): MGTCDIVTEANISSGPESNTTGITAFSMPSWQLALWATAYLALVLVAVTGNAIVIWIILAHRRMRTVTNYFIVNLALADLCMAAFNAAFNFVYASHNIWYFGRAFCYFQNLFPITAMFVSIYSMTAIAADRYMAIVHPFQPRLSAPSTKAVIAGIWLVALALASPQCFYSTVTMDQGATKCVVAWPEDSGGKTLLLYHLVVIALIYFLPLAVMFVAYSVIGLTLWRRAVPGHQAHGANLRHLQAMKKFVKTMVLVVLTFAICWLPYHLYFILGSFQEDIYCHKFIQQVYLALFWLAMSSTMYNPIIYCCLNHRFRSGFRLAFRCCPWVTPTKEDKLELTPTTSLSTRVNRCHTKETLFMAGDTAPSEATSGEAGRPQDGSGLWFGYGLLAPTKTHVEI

[5] = molecular target: Hydroxycarboxylic acid receptor 2 (Homo sapiens, UniProt Q8TDS4)
[6] = molecular target: T3, Type-2 angiotensin II receptor (Homo sapiens, UniProt P50052); type: functional
T3 sequence (P50052 whole entry): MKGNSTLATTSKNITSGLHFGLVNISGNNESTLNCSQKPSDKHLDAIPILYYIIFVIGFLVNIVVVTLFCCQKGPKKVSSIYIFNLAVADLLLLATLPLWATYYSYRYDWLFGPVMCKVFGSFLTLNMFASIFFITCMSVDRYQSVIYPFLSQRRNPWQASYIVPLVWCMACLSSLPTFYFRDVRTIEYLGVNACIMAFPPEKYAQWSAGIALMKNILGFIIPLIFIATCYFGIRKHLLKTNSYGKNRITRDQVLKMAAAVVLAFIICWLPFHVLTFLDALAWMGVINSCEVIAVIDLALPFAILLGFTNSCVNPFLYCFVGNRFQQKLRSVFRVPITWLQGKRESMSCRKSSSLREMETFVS

[7] = molecular target: T4, Muscarinic acetylcholine receptor M2 (Homo sapiens, UniProt P08172)
T4 sequence (P08172 whole entry): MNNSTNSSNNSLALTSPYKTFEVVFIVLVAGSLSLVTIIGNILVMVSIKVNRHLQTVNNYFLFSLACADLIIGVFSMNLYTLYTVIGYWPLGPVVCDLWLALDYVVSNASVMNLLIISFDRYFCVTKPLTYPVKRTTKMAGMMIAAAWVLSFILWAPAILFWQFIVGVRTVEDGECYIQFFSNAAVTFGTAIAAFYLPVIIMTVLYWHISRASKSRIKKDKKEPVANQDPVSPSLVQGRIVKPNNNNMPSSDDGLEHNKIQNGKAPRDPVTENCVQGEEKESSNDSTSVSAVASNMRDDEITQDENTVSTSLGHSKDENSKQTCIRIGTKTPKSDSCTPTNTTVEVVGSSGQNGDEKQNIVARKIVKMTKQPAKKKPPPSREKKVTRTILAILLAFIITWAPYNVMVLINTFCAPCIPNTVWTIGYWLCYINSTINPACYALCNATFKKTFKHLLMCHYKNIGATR

[8] = molecular target: Beta-1 adrenergic receptor (Homo sapiens, UniProt P08588); type: functional, cell-based
[9] = molecular target: T5, Histamine H1 receptor (Homo sapiens, UniProt P35367); type: functional, cell-based
[10] = molecular target: T5, Histamine H1 receptor; type: functional, cell-based; remark: listed apart in the source
[11] = molecular target: Voltage-dependent L-type calcium channel subunit alpha-1C (Homo sapiens, UniProt Q13936); type: functional, cell-based
Note: assay procedure not described here.

T5 sequence (P35367 whole entry): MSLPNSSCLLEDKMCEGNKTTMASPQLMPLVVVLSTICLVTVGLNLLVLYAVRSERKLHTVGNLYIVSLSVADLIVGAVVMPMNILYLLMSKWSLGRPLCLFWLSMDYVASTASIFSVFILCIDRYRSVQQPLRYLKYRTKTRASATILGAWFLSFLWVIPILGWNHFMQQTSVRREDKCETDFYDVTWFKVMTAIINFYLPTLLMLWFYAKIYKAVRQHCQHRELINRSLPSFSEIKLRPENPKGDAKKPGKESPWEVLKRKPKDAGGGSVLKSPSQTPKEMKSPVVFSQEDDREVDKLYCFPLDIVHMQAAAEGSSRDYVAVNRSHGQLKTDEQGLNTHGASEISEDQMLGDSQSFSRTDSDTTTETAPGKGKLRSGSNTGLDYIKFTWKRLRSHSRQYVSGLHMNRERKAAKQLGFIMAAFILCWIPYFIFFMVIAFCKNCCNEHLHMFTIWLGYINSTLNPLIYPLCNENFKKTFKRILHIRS
Chain of Cannabinoid receptor 1 (P21554 whole entry): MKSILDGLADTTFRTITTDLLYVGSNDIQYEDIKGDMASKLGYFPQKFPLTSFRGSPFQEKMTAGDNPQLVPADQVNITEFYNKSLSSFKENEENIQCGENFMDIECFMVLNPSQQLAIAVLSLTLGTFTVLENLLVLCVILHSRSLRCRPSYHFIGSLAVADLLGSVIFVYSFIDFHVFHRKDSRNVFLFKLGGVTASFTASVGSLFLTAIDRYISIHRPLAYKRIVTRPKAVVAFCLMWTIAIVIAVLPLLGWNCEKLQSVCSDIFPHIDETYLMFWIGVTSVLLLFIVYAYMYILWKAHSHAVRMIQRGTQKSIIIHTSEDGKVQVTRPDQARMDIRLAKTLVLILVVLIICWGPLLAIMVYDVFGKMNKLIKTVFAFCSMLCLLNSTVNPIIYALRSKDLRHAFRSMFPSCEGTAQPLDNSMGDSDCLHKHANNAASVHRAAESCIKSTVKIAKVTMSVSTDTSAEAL
Chain of D(1B) dopamine receptor (P21918 whole entry): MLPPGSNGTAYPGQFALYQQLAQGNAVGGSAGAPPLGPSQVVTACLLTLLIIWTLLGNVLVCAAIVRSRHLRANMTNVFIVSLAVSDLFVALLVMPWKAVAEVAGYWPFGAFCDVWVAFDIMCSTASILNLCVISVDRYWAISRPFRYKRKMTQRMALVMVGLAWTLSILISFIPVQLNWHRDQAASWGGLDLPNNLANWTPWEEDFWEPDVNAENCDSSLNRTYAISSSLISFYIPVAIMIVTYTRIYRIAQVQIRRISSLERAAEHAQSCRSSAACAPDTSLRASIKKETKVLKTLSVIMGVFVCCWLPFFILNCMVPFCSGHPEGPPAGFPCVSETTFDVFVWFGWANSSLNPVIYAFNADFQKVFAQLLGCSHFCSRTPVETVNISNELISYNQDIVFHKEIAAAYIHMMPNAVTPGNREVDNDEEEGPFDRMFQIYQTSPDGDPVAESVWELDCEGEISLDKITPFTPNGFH
Chain of Hydroxycarboxylic acid receptor 2 (Q8TDS4 whole entry): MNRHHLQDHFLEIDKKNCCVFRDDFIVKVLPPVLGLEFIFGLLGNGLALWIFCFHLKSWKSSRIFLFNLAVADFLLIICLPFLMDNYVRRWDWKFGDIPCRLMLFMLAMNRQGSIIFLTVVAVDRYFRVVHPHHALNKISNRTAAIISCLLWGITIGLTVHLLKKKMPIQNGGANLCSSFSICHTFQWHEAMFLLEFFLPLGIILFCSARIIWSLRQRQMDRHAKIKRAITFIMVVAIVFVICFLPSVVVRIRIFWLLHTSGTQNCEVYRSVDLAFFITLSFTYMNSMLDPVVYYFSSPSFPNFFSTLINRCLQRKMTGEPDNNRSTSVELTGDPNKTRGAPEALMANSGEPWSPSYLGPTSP
Chain of Beta-1 adrenergic receptor (P08588 whole entry): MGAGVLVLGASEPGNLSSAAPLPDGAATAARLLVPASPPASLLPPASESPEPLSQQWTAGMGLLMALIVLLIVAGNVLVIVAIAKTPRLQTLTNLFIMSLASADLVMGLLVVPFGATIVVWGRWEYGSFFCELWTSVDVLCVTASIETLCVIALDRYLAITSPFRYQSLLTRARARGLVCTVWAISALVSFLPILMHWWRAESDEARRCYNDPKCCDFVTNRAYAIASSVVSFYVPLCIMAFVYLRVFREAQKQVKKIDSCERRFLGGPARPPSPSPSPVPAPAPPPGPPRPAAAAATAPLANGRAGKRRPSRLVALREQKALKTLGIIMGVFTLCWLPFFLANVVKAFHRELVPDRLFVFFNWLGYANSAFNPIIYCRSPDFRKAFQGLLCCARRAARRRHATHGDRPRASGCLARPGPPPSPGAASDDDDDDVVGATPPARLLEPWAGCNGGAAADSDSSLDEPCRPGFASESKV
Chain of Voltage-dependent L-type calcium channel subunit alpha-1C (Q13936 whole entry): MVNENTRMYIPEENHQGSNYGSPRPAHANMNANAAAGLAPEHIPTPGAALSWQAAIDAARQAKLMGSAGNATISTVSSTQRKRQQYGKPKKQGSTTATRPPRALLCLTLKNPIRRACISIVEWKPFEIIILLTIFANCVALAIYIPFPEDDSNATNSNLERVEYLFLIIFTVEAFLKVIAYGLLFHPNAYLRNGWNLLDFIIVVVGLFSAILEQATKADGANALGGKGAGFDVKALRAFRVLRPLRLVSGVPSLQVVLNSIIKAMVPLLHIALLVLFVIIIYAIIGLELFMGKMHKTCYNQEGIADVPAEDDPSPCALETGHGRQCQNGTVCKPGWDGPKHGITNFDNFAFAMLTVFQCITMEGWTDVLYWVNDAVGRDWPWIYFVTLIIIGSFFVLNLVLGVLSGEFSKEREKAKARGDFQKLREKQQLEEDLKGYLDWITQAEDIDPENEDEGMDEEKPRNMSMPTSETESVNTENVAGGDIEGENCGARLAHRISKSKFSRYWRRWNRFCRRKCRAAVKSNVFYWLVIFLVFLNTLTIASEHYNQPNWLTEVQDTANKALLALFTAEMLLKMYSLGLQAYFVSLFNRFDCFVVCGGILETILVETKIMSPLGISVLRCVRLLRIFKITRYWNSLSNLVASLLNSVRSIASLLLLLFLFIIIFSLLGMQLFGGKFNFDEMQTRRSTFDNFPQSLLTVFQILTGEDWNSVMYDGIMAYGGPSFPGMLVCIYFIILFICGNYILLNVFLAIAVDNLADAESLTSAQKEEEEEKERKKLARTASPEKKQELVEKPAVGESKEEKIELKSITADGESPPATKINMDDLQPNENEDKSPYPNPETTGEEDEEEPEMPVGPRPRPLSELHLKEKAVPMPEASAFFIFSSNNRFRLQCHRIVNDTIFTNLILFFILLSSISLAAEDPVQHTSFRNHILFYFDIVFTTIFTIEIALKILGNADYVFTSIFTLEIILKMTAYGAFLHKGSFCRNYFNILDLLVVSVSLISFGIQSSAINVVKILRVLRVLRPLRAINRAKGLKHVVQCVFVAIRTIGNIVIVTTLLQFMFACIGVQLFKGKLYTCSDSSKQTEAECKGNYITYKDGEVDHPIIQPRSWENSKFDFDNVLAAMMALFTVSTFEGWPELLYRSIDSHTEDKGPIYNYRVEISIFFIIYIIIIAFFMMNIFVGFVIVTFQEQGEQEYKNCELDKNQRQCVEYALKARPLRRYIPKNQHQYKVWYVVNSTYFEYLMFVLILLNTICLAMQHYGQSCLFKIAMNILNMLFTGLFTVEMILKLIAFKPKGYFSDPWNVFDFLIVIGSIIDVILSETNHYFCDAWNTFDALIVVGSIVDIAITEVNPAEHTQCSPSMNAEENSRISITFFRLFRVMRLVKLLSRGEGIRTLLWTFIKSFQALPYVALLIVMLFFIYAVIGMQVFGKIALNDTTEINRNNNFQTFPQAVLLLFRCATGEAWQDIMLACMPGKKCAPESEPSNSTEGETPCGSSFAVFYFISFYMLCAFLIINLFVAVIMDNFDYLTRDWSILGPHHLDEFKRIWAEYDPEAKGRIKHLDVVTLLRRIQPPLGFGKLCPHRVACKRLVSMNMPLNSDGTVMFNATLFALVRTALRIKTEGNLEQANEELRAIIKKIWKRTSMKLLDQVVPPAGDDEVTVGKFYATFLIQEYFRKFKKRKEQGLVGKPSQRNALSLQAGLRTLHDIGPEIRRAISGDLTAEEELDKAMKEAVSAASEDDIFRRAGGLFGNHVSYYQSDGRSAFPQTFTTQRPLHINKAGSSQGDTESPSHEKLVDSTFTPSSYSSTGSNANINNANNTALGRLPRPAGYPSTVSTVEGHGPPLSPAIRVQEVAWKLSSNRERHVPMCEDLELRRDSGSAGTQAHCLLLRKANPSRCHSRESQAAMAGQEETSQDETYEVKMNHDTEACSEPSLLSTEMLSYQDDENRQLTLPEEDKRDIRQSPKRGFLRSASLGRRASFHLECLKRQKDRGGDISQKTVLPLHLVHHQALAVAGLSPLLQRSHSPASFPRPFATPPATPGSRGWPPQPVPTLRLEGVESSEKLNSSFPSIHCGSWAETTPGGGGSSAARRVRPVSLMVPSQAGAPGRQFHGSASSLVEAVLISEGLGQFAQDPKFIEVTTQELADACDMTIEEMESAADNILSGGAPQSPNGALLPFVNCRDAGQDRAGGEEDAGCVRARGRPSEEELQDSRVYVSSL

CCn1cc(C(=O)O)c(=O)c2cc(F)c(N3CCNCC3)nc21 [ENOXACIN]
AC50 [1]: > 10 µM
AC50 [2]: > 10 µM
AC50 [3]: > 10 µM
AC50 [4]: > 10 µM

COCCCOc1ccnc(C[S+]([O-])c2nc3ccccc3[nH]2)c1C (configuration not stated) [RABEPRAZOLE]
AC50 [5]: > 10 µM

NS(=O)(=O)c1cc(C2(O)NC(=O)c3ccccc32)ccc1Cl (configuration not stated) [CHLORTHALIDONE]
AC50 [6]: > 100 µM

OC(CCCN1CCCCC1)(c1ccccc1)c1ccccc1 [DIPHENIDOL]
AC50 [7]: 0.38 µM

CNC(=O)Oc1ccc2c(c1)[C@]1(C)CCN(C)[C@@H]1N2C [PHYSOSTIGMINE]
AC50 [8]: > 30 µM

O=C(CCCN1CCC2(CC1)C(=O)NCN2c1ccccc1)c1ccc(F)cc1 [SPIPERONE]
AC50 [9]: 7.1 µM
AC50 [10]: 1.2 µM

NS(=O)(=O)c1cc(C(=O)O)cc(N2CCCC2)c1Oc1ccccc1 [PIRETANIDE]
AC50 [6]: > 100 µM

O=C(Nc1nc(-c2cc(Cl)cs2)c(N2CCN(C3CCCCC3)CC2)s1)c1cnc(N2CCC(C(=O)O)CC2)c(Cl)c1 [AVATROMBOPAG]
AC50 [1]: > 10 µM
AC50 [2]: > 10 µM
AC50 [3]: > 10 µM
AC50 [4]: > 10 µM

O=C(CCCN1CC=C(n2c(=O)[nH]c3ccccc32)CC1)c1ccc(F)cc1 [DROPERIDOL]
AC50 [11]: > 50 µM

C[C@H]1C[C@H]2[C@@H]3CCC4=CC(=O)C=C[C@]4(C)[C@@]3(Cl)[C@@H](O)C[C@]2(C)[C@@]1(O)C(=O)CO [BECLOMETHASONE]
AC50 [5]: > 10 µM
